Laboratory results published in publication PMC6421539, “Discovery of Soft-Drug Topical Tool Modulators of Sphingosine-1-phosphate Receptor 1 (S1PR1)” (ACS Medicinal Chemistry Letters, 2019).
Entries after “also recorded” stand apart in the source; their conditions may differ. Like-named read-outs stand apart in the source and are kept apart here. Each block holds one compound with its values, some of them ahead of it.

Experiments:
[1] = Chemical stability in DMSO solution; format: physicochemical; details: for stability (% decrease in purity): Table 2, stored in DMSO solution for 28 days; for stability (% decrease in purity) / stability (% decrease): n = 1; for isomerization / hydrolysis / chemical instability in DMSO solution (in words): 28 days; for stability (% decrease): Table 3, % loss in purity when stored in DMSO solution for 28 days
From the text: Although several compounds shown in Table 2 satisfy the rapid clearance requirements of a soft drug and retain primary activity, none were suitable for progression into in vivo studies due to chemical stability liabilities. […] The instability in solution represented a major development hurdle as topical drugs are usually stored in solution or suspensions (cream, ointment, paste, lotion, or gels), rather than in solid form, as is the case for oral drugs. We turned our attention to identifying the impurity and preventing its formation.
Decomposition studies used ^1H NMR to monitor the increase in the acetic acid methyl group peak over 28 days (see Supporting Information). […] However, the chemical stability was poor when heteroatoms were alpha to the carbonyl of the acetate group 10d,e, and these compound degraded on standing within 24 h, preventing full characterization.

[2] = CHI logD by reverse-phase HPLC; format: physicochemical; details: compared to 4a
[3] = NMR study of isomerisation after incubation in DMSO-d6 for 6 months; format: physicochemical; details: 1H NMR integration
From the text: The NOESY spectrum of the mixture indicated no changes in the arrangement of the imine (no correlation was observed between H^11–H^19 or H^11′–H^19′).

[4] = Human liver hepatocyte stability, intrinsic clearance; format: in vitro ADME
Method: the exponential decay and consequently the rate constant (k) from the ratio of peak area of test compound to internal standard at each timepoint. The rate of intrinsic clearance (CLi) of each test compound was then calculated using the following calculation:
CLi (mL/min/g liver) = k x V x Microsomal protein yield
Where V (mL/mg protein) is the incubation volume/mg protein added and microsomal protein yield is taken as 52.5 mg protein per g liver. Verapamil (0.5 μM) was used as a positive control to confirm acceptable assay performance. Experiments were performed using a single timecourse experiment.
All values reported correspond to n of 1.
Human Liver Hepatocyte (HLH) stability experiments
Cryopreserved vials of human cryopreserved hepatocytes, supplied by Life Technologies, were thawed according to manufacturer’s instructions and cells resuspended in Williams Medium E (WME) containing cell maintenance supplement pack (CM4000, Life Technologies). Hepatocytes were incubated in suspension (0.5 million cells/mL) in 48 well non-collagen coated cell culture plates for 10 minutes at 37 °C, 5% CO 2. […] The response (area ratio of test compound to internal standard) was plotted against time using an exponential decay model and rate of disappearance calculated. […]
The half life (T½) of each test compound was determined using the following equation: […]

[5] = Topical pharmacokinetic experiment in mice; format: in vivo; details: for Mean concentration in blood: female Balb/c mice, topical 10a 1% w/v, n=3, LLoQ = 1 ng/mL, scaled LLoQ 10 ng/mL; for concentration at 2 h / concentration at 8 h: female, Balb/c, mouse, 22.5 µL of 1% w/v 10a; for concentration at 2 h / concentration at 8 h / concentration in blood: mice, topical 22.5 μL of 1% 10a in propylene glycol/ethanol 7/3
[6] = Metabolite identification in human hepatocytes; format: in vitro ADME; details: n = 1
From the text: (§1) Based on the stability of (Z,Z)-9k in DMSO over 28 days (Table 2), it is likely this hydrolysis is enzymatically driven. We then performed metabolite identification studies using (Z,Z)-9k in human hepatocytes to confirm the routes of clearance of our S1PR1 modulators.

[7] = Glutathione trapping experiment in human liver microsomes; format: in vitro ADME; details: 10 µM, 90 minutes
Method: Concentration (ng/mL) Scaled concentration (ng/mL) Mean concentration […]
Mouse 1 Mouse 2 Mouse 3 Mouse 1 Mouse 2 Mouse 3
2h-post application < LLoQ < LLoQ < LLoQ < LLoQ < LLoQ < LLoQ < LLoQ […]
Mouse 4 Mouse 5 Mouse 6 Mouse 4 Mouse 5 Mouse 6
8h-post application < LLoQ < LLoQ < LLoQ < LLoQ < LLoQ < LLoQ < LLoQ […]
Scaled LLoQ = dilution factor * LLoQ = 10*1 = 10 ng/mL
Skin concentrations for 10a
Test compound (10 µM) was incubated with 0.5 mg/mL human liver microsomes (Mixed Gender, Life Technologies) in 50 mM potassium phosphate buffer, pH 7.4 in the presence of either NADPH (8mg/mL) alone, glutathione alone or NADPH plus glutathione. Reactions are initiated by addition of 5 µL of 1 mM test compound (final concentration 10 µM, 1% solvent). Immediately, an aliquot (100 µL) of the incubation mixture was removed and mixed with acetonitrile (200 µL) to stop the reaction. A further 100 µL aliquot is removed at 90 minutes. After addition of 100 µL of water, the samples were centrifuged to sediment precipitated protein and the plates then sealed prior to analysis using a Xevo QTof Quadrupole Time-of-Flight Mass Spectrometer (Waters corporation, USA). Detection of metabolites is performed by analysis with MetabolynxXS and by manual data
(1 picture or pasted object on this page, not shown here)

[8] = Metabolite identification in human skin S9 fraction; format: in vitro ADME; details: incubation with human skin S9 fraction; n = 1
From the text: as §1

[9] = parameters: method as in PMID 20089952; details: 0.5 mg/day; cited from earlier work

Structure (SMILES): CCC/N=C1\S/C(=C\c2ccc(O)c(Cl)c2)C(=O)N1c1ccccc1C [Compound 4a]
stability (% decrease in purity) [1]: 6%

Structure (SMILES): CCC/N=C1\S/C(=C\c2ccc(O)c(Cl)c2)C(=O)N1C1CCN(C)C(=O)C1 (stereo not drawn) [Compound 4f]
reduction in CHIlogD [2]: 3 log units

Structure (SMILES): CCC/N=C1\S/C(=C\c2ccc(O)c(Cl)c2)C(=O)N1c1ccccc1O [Compound 4h]
reduction in CHIlogD [2]: 1.1 log units

Structure (SMILES): CCC/N=C1\S/C(=C\c2ccc(O)c(Br)c2)C(=O)N1c1ccccc1C [Compound 9f]
stability (% decrease in purity) [1]: 16%

Structure (SMILES): CCC/N=C1\S/C(=C\c2ccc(O)c(C(F)(F)F)c2)C(=O)N1c1ccccc1C [Compound 9g]
stability (% decrease in purity) [1]: 10%

Structure (SMILES): CCC/N=C1\S/C(=C\c2ccc(O)c(C#N)c2)C(=O)N1c1ccccc1C [Compound 9h]
impurity (E isomer) share of the mixture [3]: 32%
H Heps Cl (intrinsic clearance in human liver hepatocytes) ([4]; 0.5 μM test compound, n = 1): <0.5 mL/min/g
stability (% decrease in purity) [1]: 20%

Structure (SMILES): CCC/N=C1\S/C(=C\c2ccc(O)cn2)C(=O)N1c1ccccc1C [Compound 9i]
stability (% decrease in purity) [1]: 4%

Structure (SMILES): CCC/N=C1\S/C(=C\c2ccc(O)cc2)C(=O)N1c1ccccc1C [Compound 9j]
isomerization / hydrolysis / chemical instability in DMSO solution (in words) [1]: stable over a 28-day period
stability (% decrease in purity) [1]: 0%

Structure (SMILES): CCC/N=C1\S/C(=C\c2ccc(O)c(C)c2)C(=O)N1c1ccccc1C [Compound 9k]
Mean concentration in blood ([5]; 2h-post application): < LLoQ
Mean concentration in blood ([5]; 8h-post application): < LLoQ
concentration at 2 h ([5]; skin, 2 h, read-out: concentration in the skin): 134 µM
concentration at 8 h ([5]; skin, 8 h, read-out: concentration in the skin): 101 µM
concentration in blood ([5]; 2 h): LLoQ
concentration in blood ([5]; 8 h): LLoQ
hepatic clearance as % liver blood flow ([4]; corresponds to intrinsic clearance 31 mL/min/g, if good in vitro to in vivo correlation): 97 % liver blood flow
stability (% decrease in purity) [1]: 3%
metabolites identified [6]: glucuronide conjugation product, hydroxylation products, and hydroxylation with sulfation metabolites

Structure (SMILES): CCC/N=C1\S/C(=C\c2ccc(O)c(C(C)C)c2)C(=O)N1c1ccccc1C [Compound 9l]
stability (% decrease in purity) [1]: 3%

Structure (SMILES): CCCCCCCCc1ccc(CCC(N)(CO)CO)cc1 [fingolimod]
steady state systemic concentration Cmax [9]: 3.1 ng/mL

Structure (SMILES): CCC/N=C1\S/C(=C\c2ccc(OC[C@H](O)CO)c(Cl)c2)C(=O)N1c1ccccc1C [ponesimod, reference compound]
stability (% decrease) [1]: 0%

More lines, main results first:

Mean concentration in blood ([5]; 2h-post application): < LLoQ
Mean concentration in blood ([5]; 8h-post application): < LLoQ
concentration at 2 h ([5]; whole blood, 2 h, read-out: concentrations in blood): 8.8 µM
concentration at 8 h ([5]; whole blood, 8 h, read-out: concentrations in blood): 4.9 µM
concentration in blood ([5]; 2 h): LLoQ
concentration in blood ([5]; 8 h): LLoQ
stability (% decrease) [1]: 0%
Structure (SMILES): CCC/N=C1\S/C(=C\c2ccc(OC(C)=O)c(C)c2)C(=O)N1c1ccccc1C [Compound 10a]
glutathione adducts or derivatives [7]: no evidence of glutathione adducts or derivatives was observed
metabolites identified [8]: expected phenol (Z,Z)-9k was obtained after hydrolysis of the ester group: no other metabolites were observed
isomerization / hydrolysis / chemical instability in DMSO solution (in words) [1]: did not isomerize; also recorded: no hydrolysis or isomerization

stability (% decrease) [1]: 6.3%
Structure (SMILES): CCC/N=C1\S/C(=C\c2ccc(OC(C)=O)c(Br)c2)C(=O)N1c1ccccc1C [Compound 10b]

stability (% decrease) [1]: 1.4%
Structure (SMILES): CCC/N=C1\S/C(=C\c2ccc(OC(C)=O)c(C(F)(F)F)c2)C(=O)N1c1ccccc1C [Compound 10c]

time within which compound degraded on standing ([1]; heteroatom alpha to the carbonyl of the acetate group): ≤ 24 h
Structure (SMILES): CCC/N=C1\S/C(=C\c2ccc(OC(=O)COC)c(C)c2)C(=O)N1c1ccccc1C [Compound 10d]

stability (% decrease) [1]: 0%
Structure (SMILES): CCC/N=C1\S/C(=C\c2ccc(OC(=O)CCO)c(C)c2)C(=O)N1c1ccccc1C [Compound 10f]
isomerization / hydrolysis / chemical instability in DMSO solution (in words) [1]: did not isomerize; also recorded: instability was not an issue

isomerization / hydrolysis / chemical instability in DMSO solution (in words) [1]: instability was not an issue
Structure (SMILES): CCC/N=C1\S/C(=C\c2ccc(OC(=O)CCOC)c(C)c2)C(=O)N1c1ccccc1C [Compound 10g]
